Experimental data reported in ChEMBL document CHEMBL1134239, “Synthesis and antitumor activity of novel paclitaxel-chlorambucil hybrids” (Bioorg Med Chem Lett, 2001).

Assays:
M109 = test: Compound was tested in vivo against M109 using Madison murine lung carcinoma (M109) tumor model; assay type: functional, Mus musculus
[1] = target: Tubulin alpha chain (Sus scrofa) (UniProt P02550); test: Compound was tested in vitro for inhibition of tubulin polymerization, expressed as ratio to that obtained for paclitaxel; assay type: functional
Tubulin alpha chain (Sus scrofa), sequence (P02550 whole entry, looked up): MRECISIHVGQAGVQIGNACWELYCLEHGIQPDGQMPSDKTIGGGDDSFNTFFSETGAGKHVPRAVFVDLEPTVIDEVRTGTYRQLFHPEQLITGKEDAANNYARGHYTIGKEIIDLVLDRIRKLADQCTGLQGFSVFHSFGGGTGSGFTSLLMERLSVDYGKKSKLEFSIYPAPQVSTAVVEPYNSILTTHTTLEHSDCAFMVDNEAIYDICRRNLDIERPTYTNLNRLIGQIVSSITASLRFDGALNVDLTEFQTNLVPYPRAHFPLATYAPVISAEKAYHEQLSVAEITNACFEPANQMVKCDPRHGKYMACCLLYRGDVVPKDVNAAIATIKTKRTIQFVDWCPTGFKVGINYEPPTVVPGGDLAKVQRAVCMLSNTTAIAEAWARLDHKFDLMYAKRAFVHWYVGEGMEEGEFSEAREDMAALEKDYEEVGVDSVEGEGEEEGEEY

HCT-116 = test: Compound was tested for cytotoxicity against human colon tumor cell line (HCT116); assay type: functional, cell-based

SMILES | T/C (M109) | Tubulin polymerization [1] | IC50 (HCT-116)
CC(=O)O[C@H]1C(=O)[C@@]2(C)C([C@H](OC(=O)c3ccccc3)[C@]3(O)C[C@H](OC(=O)[C@H](O)[C@@H](NC(=O)c4ccccc4)c4ccccc4)C(C)=C1C3(C)C)[C@]1(OC(C)=O)CO[C@@H]1C[C@@H]2OCOC(=O)CCCc1ccc(N(CCCl)CCCl)cc1 (some centres undefined) | 155% | 62 | 4.6 nM
CC(=O)O[C@H]1C(=O)[C@@]2(C)C([C@H](OC(=O)c3ccccc3)[C@]3(O)C[C@H](OC(=O)[C@H](O)[C@@H](NC(=O)c4ccccc4)c4ccccc4)C(C)=C1C3(C)C)[C@]1(OC(C)=O)CO[C@@H]1C[C@@H]2OCOC(=O)N(CCOC(=O)CCCc1ccc(N(CCCl)CCCl)cc1)CCOC(=O)CCCc1ccc(N(CCCl)CCCl)cc1 (some centres undefined) | 224% | 70 | 24 nM
CC(=O)OCCN(CCOC(C)=O)C(=O)OCO[C@H]1C[C@H]2OC[C@@]2(OC(C)=O)C2[C@H](OC(=O)c3ccccc3)[C@]3(O)C[C@H](OC(=O)[C@H](O)[C@@H](NC(=O)c4ccccc4)c4ccccc4)C(C)=C([C@@H](OC(C)=O)C(=O)[C@@]21C)C3(C)C (some centres undefined) | 17% | 6.5 | 3.9 nM
CC(=O)O[C@H]1C(=O)[C@@]2(C)C([C@H](OC(=O)c3ccccc3)[C@]3(O)C[C@H](OC(=O)[C@H](O)[C@@H](NC(=O)c4ccccc4)c4ccccc4)C(C)=C1C3(C)C)[C@]1(OC(C)=O)CO[C@@H]1C[C@@H]2OC(=O)CCCc1ccc(N(CCCl)CCCl)cc1 (some centres undefined) | 127% | 53 | 161 nM
CC(=O)O[C@H]1C(=O)[C@@]2(C)[C@H]([C@H](OC(=O)c3ccccc3)[C@]3(O)C[C@H](OC(=O)[C@H](O)[C@@H](NC(=O)c4ccccc4)c4ccccc4)C(C)=C1C3(C)C)[C@]1(OC(C)=O)CO[C@@H]1C[C@@H]2O [PACLITAXEL] | 246% | 1 | 
